From patent US9975888B2, “Aryl linked imidazole and triazole derivatives and methods of use thereof for improving the pharmacokinetics of a drug” (MERCK SHARP & DOHME CORP., priority 2013, dated 2018)

Legend:
Type in all cases: biochemical
CYP1A2 = biological target: T1, CYP1A2 (Homo sapiens, UniProt P05177); experiment: Cocktail assay for CYPs, phenacetin O-deethylation (CYP1A2), human liver microsomes; conditions: 10 μM phenacetin, 0.1 mg/mL human liver microsomes, 10 min at 37° C.; read-out: CYP IC50 (nM) 1A2
T1 construct: 0.1 mg/mL protein human liver microsomes (BD Gentest); tissue BD Gentest; host or cells: human liver microsomes
T1 sequence (P05177 1-516): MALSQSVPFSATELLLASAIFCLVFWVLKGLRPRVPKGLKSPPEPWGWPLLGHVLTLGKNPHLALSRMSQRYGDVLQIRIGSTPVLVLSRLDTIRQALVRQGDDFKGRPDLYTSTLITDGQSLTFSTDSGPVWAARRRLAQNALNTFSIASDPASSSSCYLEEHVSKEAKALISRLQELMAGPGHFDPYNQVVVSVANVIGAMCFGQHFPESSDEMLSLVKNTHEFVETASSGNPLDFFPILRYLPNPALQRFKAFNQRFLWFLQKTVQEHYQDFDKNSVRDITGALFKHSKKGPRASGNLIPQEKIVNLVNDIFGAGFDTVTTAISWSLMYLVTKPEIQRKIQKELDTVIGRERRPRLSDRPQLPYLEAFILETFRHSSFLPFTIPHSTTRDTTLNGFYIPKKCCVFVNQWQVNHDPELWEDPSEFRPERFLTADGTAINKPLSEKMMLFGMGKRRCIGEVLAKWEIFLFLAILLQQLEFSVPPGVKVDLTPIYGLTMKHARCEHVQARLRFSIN
Method: (§1) Determination of IC50 in a Cocktail Assay for CYPs 1A2, 2C9, 2C19, 2D6 and 3A4:
(§2) This assay was performed in a standard 96-well plate design. IC50 values were calculated from the percent inhibition observed for each test compound at 6 concentrations (for example, 0.0032, 0.016, 0.08, 0.4, 2 and 10 μM). The incubation substrate mix contains 10 μM phenacetin (1A2), 5 μM diclofenac (2C9), 30 μM mephenytoin (2C19), 5 μM dextromethorphan (2D6) and 2 μM midazolam (3A4), 0.1 mg/mL protein human liver microsomes (BD Gentest), 1 mM NAPDH, 3.3 mM MgCl2 and 100 mM potassium phosphate buffer (pH 7.4). The production of the metabolite of each probe substrate was determined after incubation for 10 min at 37° C. Quantitation of the metabolite peak area ratio against an internal standard (tolbutamide) was determined by LC/MS/MS analysis following acetonitrile treatment of the incubations.
(§3) Samples were analyzed in the MRM mode with a SCIEX API-4000 mass spectrometer (Applied Biosystems, Foster City, Calif.), with a Shimadzu LC-20 AD pump (Shimadzu corporation, Kyoto, JP) and a CTC PAL autosampler (Agilent Technologies, Switzerland). A Phenomenex, Luna, 5 nm, 100 A, 2.00×30 mm HPLC column was used for the separation. The mobile phases were: (A) 0.1% formic acid in water and (B) 0.1% formic acid in acetonitrile. The binary gradient was as follows.
(§4) The peak area ratio of the analyte to the internal standard was used to quantify the metabolite. The values of peak area ratios in the presence of test compound were compared to those of maximum or minimum controls and were expressed as % inhibition by interpolating between the maximum and minimum peak area ratios. Incubations with no inhibitor were defined as the maxima. The following equation was used to calculate the % inhibition: [1−[(X−Low control)/(High control−Low control)]]*100 For the IC50 calculation, SigmaPlot was used to plot the mean % inhibition versus the test compound concentrations and for non-linear regression analysis of the data. Depending on the range of data points defining the inhibition curve, the data may have been fit to the 4-parameter logistic equation.

CYP2C9 = biological target: T2, CYP2C9 (Homo sapiens, UniProt P11712); experiment: Cocktail assay for CYPs, diclofenac 4′-hydroxylation (CYP2C9), human liver microsomes; conditions: 5 μM diclofenac, 0.1 mg/mL human liver microsomes, 10 min at 37° C.; read-out: CYP IC50 (nM) 2C9
T2 construct: 0.1 mg/mL protein human liver microsomes (BD Gentest); tissue BD Gentest; host or cells: human liver microsomes
Method: as §1
as §2, with “IC50 values were calculated from the percent inhibition observed for each test compound at 6 concentrations (for example, 0.0032, 0.016, 0.08, 0.4, 2 and 10 μM).” left out
as §3, §4

CYP2C19 = biological target: T3, CYP2C19 (Homo sapiens, UniProt P33261); experiment: Cocktail assay for CYPs, mephenytoin 4′-hydroxylation (CYP2C19), human liver microsomes; conditions: 30 μM mephenytoin, 0.1 mg/mL human liver microsomes, 10 min at 37° C.; read-out: CYP IC50 (nM) 2C19
T3 construct: 0.1 mg/mL protein human liver microsomes (BD Gentest); tissue BD Gentest; host or cells: human liver microsomes
Method: as §1
as §2, with “IC50 values were calculated from the percent inhibition observed for each test compound at 6 concentrations (for example, 0.0032, 0.016, 0.08, 0.4, 2 and 10 μM).” left out
as §3, §4

CYP2D6 = biological target: T4, CYP2D6 (Homo sapiens, UniProt P10635); experiment: Cocktail assay for CYPs, dextromethorphan O-demethylation (CYP2D6), human liver microsomes; conditions: 5 μM dextromethorphan, 0.1 mg/mL human liver microsomes, 10 min at 37° C.; read-out: CYP IC50 (nM) 2D6
T4 construct: 0.1 mg/mL protein human liver microsomes (BD Gentest); tissue BD Gentest; host or cells: human liver microsomes
Method: as §1, §2, §3, §4

CYP3A4 [1] = biological target: T5, CYP3A4 (Homo sapiens, UniProt P08684); experiment: Cocktail assay for CYPs, midazolam 1′-hydroxylation (CYP3A4), human liver microsomes; parameters: 0.1 mg/mL protein human liver microsomes (BD Gentest); tissue BD Gentest; host or cells: human liver microsomes; conditions: 2 μM midazolam, 0.1 mg/mL human liver microsomes, 10 min at 37° C.; read-out: CYP IC50 (nM) 3A4 (MDZ)
Method: as §1, §2, §3, §4
Target sequence in this assay (P08684 whole entry): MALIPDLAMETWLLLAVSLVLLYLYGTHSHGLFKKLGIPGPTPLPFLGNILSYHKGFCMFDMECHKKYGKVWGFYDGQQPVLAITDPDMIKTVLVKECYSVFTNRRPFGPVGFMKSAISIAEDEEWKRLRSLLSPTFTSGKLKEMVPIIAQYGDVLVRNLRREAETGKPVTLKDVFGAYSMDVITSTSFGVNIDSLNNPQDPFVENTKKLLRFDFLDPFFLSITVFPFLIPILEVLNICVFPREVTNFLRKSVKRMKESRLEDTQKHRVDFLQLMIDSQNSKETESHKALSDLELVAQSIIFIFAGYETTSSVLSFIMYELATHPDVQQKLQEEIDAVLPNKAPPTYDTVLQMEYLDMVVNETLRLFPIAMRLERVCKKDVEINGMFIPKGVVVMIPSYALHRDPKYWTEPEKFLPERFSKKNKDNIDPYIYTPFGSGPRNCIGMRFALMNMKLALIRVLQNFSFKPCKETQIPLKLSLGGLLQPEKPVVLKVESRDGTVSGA

CYP3A4 [2] = biological target: T5, CYP3A4; experiment: IC50 vs CYP3A by inhibition of lopinavir metabolism in human liver microsomes; parameters: 0.01 mg/mL protein human liver microsomes (BD Gentest); tissue BD Gentest; host or cells: human liver microsomes; conditions: 1.5 μM lopinavir, 0.01 mg/mL human liver microsomes, 8 min at 37° C.; read-out: CYP IC50 (nM) 3A4 (LPV)
Method: Determination of IC50 vs CYP3A by Measurement of Inhibition of Lopinavir Metabolism
This assay was performed in a standard 96-well plate design. IC50 values were calculated from the percent inhibition observed for each test compound at 6 concentrations (for example, 0.098, 0.391, 1.56, 6.25, 25 and 100 nM). The incubation substrate mix contains 1.5 μM lopinavir, 0.01 mg/mL protein human liver microsomes (BD Gentest), 1 mM NAPDH, 3.3 mM MgCl2 and 100 mM potassium phosphate buffer (pH 7.4). The production of the sum of three hydroxylated metabolites (M2: 6-hydroxy lopinavir, M3: 4-hydroxy lopinavir, M4: 4-hydroxy lopinavir (epimer of M3), Kumar et al., 1999) was determined after incubation for 8 min at 37° C. Quantitation of the metabolite peak area ratio against an internal standard (tolbutamide) was determined by LC/MS/MS analysis following acetonitrile treatment of the incubations.
as §3, with “μm,” for “nm,”
Target sequence in this assay (P08684 2-503): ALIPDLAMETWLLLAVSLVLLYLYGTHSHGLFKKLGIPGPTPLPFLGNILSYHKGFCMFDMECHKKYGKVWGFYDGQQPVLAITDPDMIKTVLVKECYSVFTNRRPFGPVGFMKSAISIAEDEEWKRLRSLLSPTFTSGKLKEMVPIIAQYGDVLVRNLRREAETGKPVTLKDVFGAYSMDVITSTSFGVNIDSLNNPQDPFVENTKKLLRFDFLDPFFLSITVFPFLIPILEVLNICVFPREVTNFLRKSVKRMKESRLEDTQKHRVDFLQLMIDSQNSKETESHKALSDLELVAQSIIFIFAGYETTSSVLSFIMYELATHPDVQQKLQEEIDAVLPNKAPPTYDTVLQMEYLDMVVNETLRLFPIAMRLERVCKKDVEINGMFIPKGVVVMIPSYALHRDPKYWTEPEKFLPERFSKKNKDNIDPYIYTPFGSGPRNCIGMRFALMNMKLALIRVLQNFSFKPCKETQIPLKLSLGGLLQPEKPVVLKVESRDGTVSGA
The peak area ratio of the analyte to the internal standard was used to quantify the metabolite. The values of peak area ratios in the presence of test compound were compared to those of maximum or minimum controls and were expressed as % inhibition by interpolating between the maximum and minimum peak area ratios. Incubations with no inhibitor were defined as the maxima and with 5 μM ketoconazole were defined as the minima.
The following equation was used to calculate the % inhibition: [1−[(X−Low control)/(High control−Low control)]]*100
For the IC50 calculation, SigmaPlot was used to plot the mean % inhibition versus the test compound concentrations and for non-linear regression analysis of the data. Depending on the range of data points defining the inhibition curve, the data may have been fit to the 4-parameter logistic equation.

T4 sequence (P10635 whole entry): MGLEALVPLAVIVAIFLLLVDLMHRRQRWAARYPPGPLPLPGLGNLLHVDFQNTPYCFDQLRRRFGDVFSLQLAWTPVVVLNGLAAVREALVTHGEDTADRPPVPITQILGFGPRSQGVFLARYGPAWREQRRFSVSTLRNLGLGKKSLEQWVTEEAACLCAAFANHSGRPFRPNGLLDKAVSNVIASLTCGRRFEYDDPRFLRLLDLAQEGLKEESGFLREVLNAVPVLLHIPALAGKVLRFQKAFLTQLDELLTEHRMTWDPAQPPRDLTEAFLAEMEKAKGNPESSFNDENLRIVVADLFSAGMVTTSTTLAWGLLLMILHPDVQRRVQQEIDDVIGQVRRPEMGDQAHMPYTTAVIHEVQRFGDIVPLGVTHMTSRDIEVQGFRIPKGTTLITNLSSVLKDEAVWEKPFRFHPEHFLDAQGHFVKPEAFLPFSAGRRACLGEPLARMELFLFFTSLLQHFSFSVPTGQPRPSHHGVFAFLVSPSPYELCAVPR
T2 sequence (P11712 whole entry): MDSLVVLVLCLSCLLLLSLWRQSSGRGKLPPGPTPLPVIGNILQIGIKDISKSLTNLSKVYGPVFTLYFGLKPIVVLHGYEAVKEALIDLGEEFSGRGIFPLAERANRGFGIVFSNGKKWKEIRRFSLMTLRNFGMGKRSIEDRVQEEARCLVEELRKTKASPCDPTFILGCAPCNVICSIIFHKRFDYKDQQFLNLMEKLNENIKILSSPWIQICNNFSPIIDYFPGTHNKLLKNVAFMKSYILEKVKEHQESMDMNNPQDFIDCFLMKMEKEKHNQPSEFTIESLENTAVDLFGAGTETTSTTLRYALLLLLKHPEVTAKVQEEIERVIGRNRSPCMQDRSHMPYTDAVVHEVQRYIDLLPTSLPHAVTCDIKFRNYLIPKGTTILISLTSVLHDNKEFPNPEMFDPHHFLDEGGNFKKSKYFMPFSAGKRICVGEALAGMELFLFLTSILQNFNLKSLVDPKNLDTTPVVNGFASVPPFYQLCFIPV
T3 sequence (P33261 whole entry): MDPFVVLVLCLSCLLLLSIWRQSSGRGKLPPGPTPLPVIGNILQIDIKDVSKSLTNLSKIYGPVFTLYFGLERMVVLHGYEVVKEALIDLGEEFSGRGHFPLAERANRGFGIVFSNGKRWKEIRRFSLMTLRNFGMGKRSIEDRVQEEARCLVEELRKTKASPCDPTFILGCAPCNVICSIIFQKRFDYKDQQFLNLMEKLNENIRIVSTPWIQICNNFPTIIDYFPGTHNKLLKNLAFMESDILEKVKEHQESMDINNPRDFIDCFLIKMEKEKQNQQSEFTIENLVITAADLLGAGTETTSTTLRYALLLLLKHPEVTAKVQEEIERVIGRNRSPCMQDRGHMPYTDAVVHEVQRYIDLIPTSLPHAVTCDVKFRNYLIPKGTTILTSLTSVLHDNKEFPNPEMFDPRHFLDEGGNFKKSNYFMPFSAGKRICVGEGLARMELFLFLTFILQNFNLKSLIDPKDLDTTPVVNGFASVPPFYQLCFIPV

Row | Compound | IC50 (CYP1A2) [nM] | IC50 (CYP2C9) [nM] | IC50 (CYP2C19) [nM] | IC50 (CYP2D6) [nM] | IC50 (CYP3A4 [1]) [nM] | IC50 (CYP3A4 [2]) [nM]
1 | COCCn1cncc1-c1ccccc1C1CCCN1S(=O)(=O)c1cnc(NC(C)=O)s1 (stereo not shown) [Compound 20, N-(5-((2-(2-(1-(2-methoxyethyl)-1H-imidazol-5-yl)phenyl)pyrrolidin-1-yl)sulfonyl)thiazol-2-yl)acetamide] | > 10000 | > 10000 | > 10000 | > 10000 | 38.5 | ≥ 100
2 | CC(C)(C)OC(=O)N1CCCC1c1ccccc1-c1cncn1C1CC1 (stereo not shown) [Compound 37, tert-butyl 2-(2-(1-cyclopropyl-1H-imidazol-5-yl)phenyl) pyrrolidine-1-carboxylate] | > 10000 | > 10000 | 5810 | > 10000 | 17.8 | 35.2
3 | O=S(=O)(c1ccc(N2CCC(O)CC2)nc1)N1CCCC1c1ccccc1-c1cncn1CCc1ccc(F)cc1 (single isomer, unassigned) [Compound 32, (R or S)-1-(5-((2-(2-(1-(4-fluorophenethyl)-1H-imidazol-5-yl)phenyl)pyrrolidin-1-yl)sulfonyl)pyridin-2-yl) piperidin-4-ol] | > 10000 | 3720 | 3410 | 5820 | 4.2 | 0.7
4 | O=C(c1cccnc1)N1CCCC1c1cccc(-c2cncn2CCc2ccc(F)cc2)c1 (single isomer, unassigned) [Compound 48b, (R or S)-(2-(3-(1-(4-fluorophenethyl)-1H-imidazol-5-yl)phenyl)pyrrolidin-1-yl) (pyridin-3-yl) methanone] | > 10000 | 9840 | 4800 | 3880 | 41.2 | > 100
5 | O=S(=O)(c1cnc(N2CCN3C[C@H](O)C[C@H]3C2)s1)N1CCc2c(cccc2-c2cncn2CCc2ccc(F)cc2)C1 [Compound 64, (7R,8aS)-2-(5-((5-(1-(4-fluorophenethyl)-1H-imidazol-5-yl)-3,4-dihydroisoquinolin-2(1H)-yl)sulfonyl)thiazol-2-yl)octahydro-pyrrolo[1,2-a] pyrazin-7-ol] | > 10000 | 3550 | 4230 | 3130 | 4.7 | 1.6
6 | CN(C)c1ccc(S(=O)(=O)N2CCCC2c2ccccc2-c2cncn2CCc2ccc(F)cc2)cn1 (single isomer, unassigned) [Compound 28b, (R or S)-5-((2-(2-(1-(4-fluorophenethyl)-1H-imidazol-5-yl)phenyl)pyrrolidin-1-yl)sulfonyl)-N,N-dimethylpyridin-2-amine] | > 10000 | 1150 | 4980 | > 10000 | 11.8 | 10.1
7 | CC(C)NC(=O)N1CCCC1c1ccccc1-c1cncn1CCc1ccc(F)cc1 (single isomer, unassigned) [Compound 46a, (R or S)-2-(2-(1-(4-fluorophenethyl)-1H-imidazol-5-yl)phenyl)-N-isopropyl-pyrrolidine-1-carboxamide] | > 10000 | > 10000 | > 10000 | > 10000 | 58.5 | 45.3
8 | CC(=O)Nc1ncc(S(=O)(=O)NC2(c3ccc(-c4cncn4[C@H](C)c4ccc(F)cc4)cc3)CC2)s1 [Compound 10, (R)—N-(5-(N-(1-(4-(1-(1-(4-fluorophenyl)ethyl)-1H-imidazol-5-yl)phenyl)cyclopropyl)sulfamoyl)thiazol-2-yl)acetamide] | 8480 | > 10000 | > 10000 | 9200 | 192 | > 100
9 | CN1CCCC1c1ccccc1-c1cncn1CCc1ccc(F)cc1 (single isomer, unassigned) [Compound 45a, (R or S)-1-(4-fluorophenethyl)-5-(2-(1-methylpyrrolidin-2-yl)phenyl)-1H-imidazole] | > 10000 | > 10000 | 7790 | 4220 | 14.3 | –
10 | CN1CCCC1c1ccccc1-c1cncn1CCc1ccc(F)cc1 (single isomer, unassigned) [Compound 45b, (R or S)-1-(4-fluorophenethyl)-5-(2-(1-methylpyrrolidin-2-yl)phenyl)-1H-imidazole] | > 10000 | > 10000 | > 10000 | 2480 | 22.8 | –
